Measured values: patent US20250228881A1, “COMPOSITION FOR PREVENTION OR TREATMENT OF MULTIPLE MYELOMA COMPRISING NOVEL T[…] AS ACTIVE INGREDIENT” (KBLUEBIO INC, priority 2021, published 2025)
Entries after “also recorded” stand apart in the source; their conditions may differ.

Tests used:
[1] = system: human-derived multiple myeloma cell lines ARH77, U266, and RPMI 8226; test: Multiple myeloma mouse xenograft model, tail vein administration; format: in vivo; conditions: xenograft mice
Experimental: Using xenograft models obtained by injecting the same human-derived multiple myeloma cell lines ARH77, U266, and RPMI 8226 into mice, each of KBB-N2 was injected into the vein tail at 7 mg/Kg/day, and as a positive control, lenalidomide, which is currently widely used as a therapeutic agent for multiple myeloma in clinical practice, was injected into the vein tail at 1 mg/Kg/day.

RPMI 8226 cells = test: Quantitative RT-PCR array of 84 apoptosis-related genes after KBB-N2 treatment; format: cell-based, Human; conditions: 50 μM KBB-N2, 48 hours
Experimental: To investigate the cell death mechanism induced by treatment with KBB-N2, changes in the expression of apoptosis-related genes in a multiple myeloma cell line were measured. 50 μM of KBB-N2 was added to multiple myeloma cells (million cells/mL), followed by 48 hours of culture. Then, total RNA was extracted and the expression levels of 84 apoptosis-related genes were analyzed using quantitative RT-PCR array (Cat #PAHS-012Z; Qiagen Seoul, Seoul, Korea). After treating the cells with 50 μM of KBB-N2, the cells were cultured for 48 hours, and total RNA was isolated from the RPMI 8226 cells using the RNAqueous total RNA isolation kit (Thermo Fisher Scientific). Contaminating genomic DNA in the extracted RNA was removed using an RNase-Free DNase set (Qiagen). Total RNA (5 ug) was reverse transcribed into cDNA in a reaction volume of 10 μL using the RT2 First Strand Kit (Qiagen). Next, 10 μL of cDNA was combined with each primer set of the human apoptosis-related RT2 Profiler PCR Array (Qiagen) according to the manufacturer's protocol. Amplification reactions were performed using the real-time polymerase chain reaction system CFX96 (Bio-Rad, Hercules, CA, USA) with automated baseline and threshold cycle detection. The relative expression of […] genes was normalized to five built-in housekeeping genes. Each group was analyzed by the web-based software GeneGlobe Data Analysis Center (Qiagen).

[2] = system: multiple myeloma cell lines; test: Co-treatment of multiple myeloma cell lines with KBB-N2 and lenalidomide (killing effect); format: cell-based, Human; conditions: co-treated with lenalidomide, compared with lenalidomide alone
Experimental: Multiple myeloma cells IM-9 and RPMI 8226 (3×10^6 cells/mL) treated with KBB-N2 for 48 hours were washed with 1x PBS (phosphate-buffered saline, pH 7.4) and fixed with 70% ethanol. After washing several times with 1×PBS, 5 μL of Annexin V-FITC and 5 μL of PI (propidium iodine) (Sigma-Aldrich, St. Louis, MO) were added to 500 μL of 1×PBS containing the cells (1×10^6 cells/mL) suspended therein, followed by staining in a dark room at room temperature for 30 minutes. Then, 500 μL of 1× binding buffer was added thereto, and flow cytometry was performed using FACSCalibur (Becton Dickinson, Franklin Lakes, NJ, USA), followed by analysis using the CellQuest software (Becton Dickinson) program.

[3] = system: normal hematopoietic stem cells; test: Progenitor colony formation of normal PBSC fraction on methylcellulose (toxicity to hematopoietic stem cells); format: cell-based; conditions: normal donor PBSC, 2 weeks, KBB-N2 up to 60 μM
Experimental: G-CSF was subcutaneously injected into a normal donor to mobilize hematopoietic stem cells, and a peripheral blood stem cell (PBSC) fraction was extracted from the donor's peripheral blood by leukapheresis. The obtained normal PBSC fraction and KBB-N2 were cultured on methylcellulose for 2 weeks, and the cytotoxicity of KBB-N2 to hematopoietic stem cells was evaluated by counting the number of the formed erythroid progenitor colonies and leukocyte/megakaryocytic progenitor colonies.

## CC(C)=CCC[C@](C)(O)[C@H]1CC[C@]2(C)[C@@H]1[C@H](O)C[C@@H]1[C@@]3(C)CC[C@H](O[C@@H]4O[C@H](CO)[C@@H](O)[C@H](O)[C@H]4O)C(C)(C)[C@@H]3CC[C@]12C [KBB-N2]
[1]; KBB-N2 7 mg/Kg/day tail vein vs positive control lenalidomide 1 mg/Kg/day tail vein
  therapeutic effect for multiple myeloma: therapeutic effect equal to or higher than that of traditional lenalidomide
[1]; bone marrow biopsy after treatment
  effect on multiple myeloma treatment in bone marrow biopsy after treatment: effect of KBB-N2 on multiple myeloma treatment was also found
RPMI 8226 cells
  overexpression of apoptosis-related gene APAF1: at least 2 fold
  overexpression of apoptosis-related gene BAD: at least 2 fold
  overexpression of apoptosis-related gene BCL2: at least 3 fold
  overexpression of apoptosis-related gene BCL2L1: at least 2 fold
  overexpression of apoptosis-related gene CAS7: at least 3 fold
  overexpression of apoptosis-related gene CASP2: at least 2 fold
  overexpression of apoptosis-related gene CASP3: at least 2 fold
  overexpression of apoptosis-related gene DAPK1: at least 4 fold
  overexpression of apoptosis-related gene FADD: at least 2 fold
  overexpression of apoptosis-related gene HRK: at least 2 fold
  overexpression of apoptosis-related gene IGFIR: at least 2 fold
  overexpression of apoptosis-related gene LTBR: at least 2 fold
  overexpression of apoptosis-related gene NAIP: at least 2 fold
  overexpression of apoptosis-related gene NOD1: at least 2 fold
  overexpression of apoptosis-related gene NOL3: at least 2 fold
  overexpression of apoptosis-related gene TNF: at least 2 fold
  overexpression of apoptosis-related gene TNFRF1A: at least 2 fold
  overexpression of apoptosis-related gene TNFRSF1B: at least 2 fold
  overexpression of apoptosis-related gene TNFRSF10A: at least 2 fold
  overexpression of apoptosis-related gene TNFRSF10B: at least 2 fold
  overexpression of apoptosis-related gene TNFRSF25: at least 2 fold
  overexpression of apoptosis-related gene TP53: at least 2 fold
  overexpression of apoptosis-related gene TRADD: at least 2 fold
  overexpression of apoptosis-related gene XIAP: at least 2 fold
[2]
  killing effect on co-treatment with lenalidomide: killing effect was higher
[3]
  cytotoxicity to hematopoietic stem cells: number and morphology/formation of progenitor cell colonies: not toxic to normal hematopoietic stem cells; also recorded: not significantly inhibited
